Data: ChEMBL document CHEMBL3507680, “University of Dundee, Gates Library screen for HepG2 cell viability”

Assay: Human HepG2 cell viability assay in 384 well format
Assay type: toxicity, cell-based
Parameters: dose 125 nL, time 70.5 hour; concentration not given beside the values
Settings: HepG2 cells, read-out: Inhibition

SMILES	cytotoxicity at 70.5 h [%]
CC(=O)Nc1cccc(C(=O)N(C)C(C)Cc2cc(C)ccn2)c1 (stereo not given)	-2.97
COc1ccccc1CN1C[C@@H]2CN(Cc3cccnc3)CCO[C@@H]2C1	12.8
CCSc1ncc(Cl)c(C(=O)NC(CCSC)C(=O)O)n1 (stereo not given)	-7.9
O=C(NS(=O)(=O)Cc1ccc(F)cc1)C1CCc2ccccc21 (stereo not given)	3.78
CCn1c(C)nnc1SCCNc1cc(OC)ncn1	-18.6
CO[C@@H]1CO[C@@]2(CCCN(C(=O)C3CC=CC3)C2)C1	-1.96
CC(=O)N(Cc1noc(C2CC2)n1)C1CCN(Cc2ccccn2)C1 (stereo not given)	-9.44
N#CCCCS(=O)(=O)NC1(c2cccc(Cl)c2)CC1	-9.01
CCC[C@H]1CN(Cc2cncn2C)C[C@@H]1NC(=O)C1(COC)CCC1	-9.83
COc1ccc(C2(C(=O)NC3CCc4nccn4C3)CCCC2)cc1 (stereo not given)	-3
Cn1nc(C2CCNCC2)c2c(C(=O)NC3CC3)cc(C3CC3)nc21	15
CC(C)CCN1CCCC12Cc1ccccc1CNC2=O (stereo not given)	-7.7
COCCN(C)C[C@@H]1CN(C(=O)c2ccc(O)c(C)c2)C[C@@H]1CO	-2.33
OCC(O)CSCc1cn(-c2ccc(Cl)cc2)nn1 (stereo not given)	0.0879
C=C/C=c1\c(=C/C)oc2c(NCc3ccccc3)nc(C)nc12	13.2
Cn1cc(C(=O)N2CCCC2c2[nH]ncc2C(N)=O)cn1 (stereo not given)	-5.5
Cc1cnn(CC2CCCCN2Cc2cc(C)no2)c1 (stereo not given)	-8.3
NC(=O)CCN1CCc2onc(-c3ccccc3F)c2C1	-11.6
CC(C)NC(=O)C[C@@H]1CCNC[C@@H]1Cc1cc(-c2ccccn2)on1	-16.5
COc1cccc(-c2n[nH]cc2CNC2CCN(C(C)C)CC2)c1	-0.27
O=C(c1cccc(S(=O)(=O)NC[C@@H]2C[C@H](F)CN2)c1)N1CCCCC1	4.39
CCc1cc(CNC(=O)N2Cc3ccccc3N(C)CC2C)on1 (stereo not given)	3.84
CN(CCc1ccccn1)C(=O)C(O)c1cc(Cl)cc(Cl)c1 (stereo not given)	42.8

SMILES	cytotoxicity at 70.5 h [%]
O=C(NC1CCCN(c2ccc(OC(F)F)cc2)C1)c1cnccn1 (stereo not given)	-6.56
CCn1nc(CC(C)C)cc1C(=O)N1CCOCC(O)C1 (stereo not given)	-2.68
Cn1c(Cn2ccnc2)nnc1C1CCN(Cc2cccnc2N)CC1	-9.06
CNC(=O)c1sccc1S(=O)(=O)NC	-6.63
NC(=O)NC(=O)CCN1CCC(C(=O)c2cc(F)ccc2F)CC1	-12.1
CC(=O)N(Cc1noc(C)n1)C1CCN(Cc2cnc(C)s2)C1 (stereo not given)	-4.39
CC(=O)N1CCCN(C(C(=O)O)c2cccc(C)c2C)CC1 (stereo not given)	-12.3
CN(C)CC(=O)NC1CC(=O)N(CCc2ccccc2)C1 (stereo not given)	-4.7
COCCN1CCCn2c(nc(CNS(C)(=O)=O)cc2=O)C1	-6.97
CCn1c(CC2CCN(C(=O)C3COCCO3)CC2)nn(C)c1=O (stereo not given)	42.7
CC(C)c1nnc2n1CCN(C(=O)c1ccc3c(c1)NC(=O)CO3)C2	-2.96
COC1CCN(c2ccc(NC(=O)C3CC3)cc2C(F)(F)F)CC1	-4.49
O=C(Nc1ccccc1-c1cccs1)N1CCOCC1	-13.2
CCN(CC)C(CNC(=O)c1ccc(S(C)(=O)=O)cc1)c1ccco1 (stereo not given)	-0.309
FC1(F)CCN(Cc2ccccn2)CC12CCN(c1ncccn1)C2 (stereo not given)	-7.15
O=C([C@H]1CCCO1)N1CCN(CCn2cccn2)c2ncccc2C1	-5.29
Cn1cc(-c2ccnc(NCC3CCCCO3)n2)cn1 (stereo not given)	9.61
O=C(c1cccc(Cl)c1F)N1CCOC2(CNCCOC2)C1 (stereo not given)	32.2
O=C(CN1CCOC(Cn2cncn2)C1)NCc1cccs1 (stereo not given)	29.2
CC/C(C)=C/CCN1CCN(C)C2(CCNC(=O)CC2)C1 (stereo not given)	-6.34
Cc1nccn1-c1ccc(N2CCC(NC(C)C(C)C)CC2)cc1 (stereo not given)	-2
O=C(NCc1cccc(F)c1)c1cccc(C(=O)N2CCCC2)n1	3.72
Cn1ncc2c1NC(=O)CC2c1ccccc1Cl (stereo not given)	-5.68

SMILES	cytotoxicity at 70.5 h [%]
CN1CCN(Cc2cnc3n2CCN(C(=O)c2ccoc2)C3)CC1	-7.31
CN(C)c1ncccc1CNC(=O)CCNc1ncccn1	-9.01
COc1c(CNCc2cccc(CS(C)(=O)=O)c2)c(C)nn1C	-17
NC(=O)C1(CCCc2ccccn2)CCCN(Cc2ccncc2)C1 (stereo not given)	-2.02
CCc1nc(CN2CCCN(C(=O)COC)CC2)cs1	-6.47
O=C(CCn1ncc2c(Cl)cccc21)NCCCO	-5.48
CSCCCN1C[C@H]2CC[C@@H]1CN(Cc1[nH]cnc1C)C2	-2.71
CCc1cc(O)nc(C2CCCN2C(=O)c2cc(CC)on2)n1 (stereo not given)	-5.67
Fc1ccccc1-c1nccnc1C1CCCNC1 (stereo not given)	-8.72
Cc1cc(C(=O)N2CC[C@H]3[C@H](C[C@@H](CN4CCCC4)N3C)C2)c(C)o1	1.81
CC(C)(C)OC(=O)NC1CCCN(Cc2cccs2)C1 (stereo not given)	6.34
CSC(C)C(=O)NS(=O)(=O)CCc1ccccc1 (stereo not given)	-2.58
Cc1ccsc1CNC(=O)Cc1c(C)nc2c(c1C)c(=O)[nH]n2C	-12.2
COc1cccc(OC)c1-c1ccnc2cc(CC(=O)N(C)C)nn12	-11.5
CC(C)c1nc(C2CCCNC2)no1 (stereo not given)	14.1
Cc1cccc(CN2CCC3(CCCN(C(=O)N4CCCC4)C3)C2=O)n1 (stereo not given)	40
Cn1cc(CN2CC[C@H]3O[C@H](C(=O)Nc4cnccn4)CC[C@H]32)cn1	29.6
CCN(Cc1cccc(-c2ccncc2)c1)S(N)(=O)=O	-2.79
CCN(c1cccc(F)c1)S(=O)(=O)c1cc(C(=O)O)cc2c1CCC2	-9.22
CC(O)CN1CCC(CNCc2ccc(C(N)=O)cc2)CC1 (stereo not given)	-0.474
Cc1cc(Cc2ccccc2)cc(C2CCCNC2)n1 (stereo not given)	-5.23
COc1cc(C)nc(N2CCN(C(=O)CCc3cscn3)CC2)n1	-6.3
Cc1c[nH]c(CN2CCN(C)C3(CCC(=O)N(CC4CC4)CC3)C2)n1 (stereo not given)	19.9

SMILES	cytotoxicity at 70.5 h [%]
Cc1cn2c(n1)C(CNCC1=Cc3ccccc3OC1)CCC2 (stereo not given)	10.6
Cc1nc(C)n(CC2CCCCN2CC(=O)Nc2nnc(C)s2)n1 (stereo not given)	1.52
Cc1cc(N2CCN(Cc3ccsc3)C(CCO)C2)nc(N)n1 (stereo not given)	-6.22
CCCc1nccn1-c1ccncc1	-5.45
Cc1nnc(CN2CCCC2c2ccc3c(c2)OCCCO3)n1C (stereo not given)	-5.99
COc1ccccc1N1CCN(C(=O)Cn2nc(C)cc2C)CC1(C)C	-14.1
Cc1ncsc1C(=O)NCCc1cccs1	2.38
O=C(NCc1nnc2n1CCCC2)c1ccc(C2CCCO2)s1 (stereo not given)	18.3
COC(=O)NCC(=O)N(C)CC1Cc2ccccc2CN1C (stereo not given)	-2.82
Cc1nc(C(C)C)sc1CNC(=O)CCCN1CCCCC1	30.6
CC(=O)Nc1cccc2c1ccn2CC(=O)NC(C)C	-2.5
O=C(C1CCCCN1Cc1nc(-c2ccco2)no1)N1CCCC1 (stereo not given)	4.12
O=C(NCc1ccco1)c1[nH]nc2c1CS(=O)(=O)CC2	22.5
O=C(C1CCC1)N1C[C@@H]2CN(c3ccccc3)C(=O)[C@@H]2C1	11
CC(=O)N1CCN(C(C)c2ccc(Br)cc2)CC1 (stereo not given)	-0.505
CNS(=O)(=O)c1cccc(C(C)NCc2nccn2C(C)C)c1 (stereo not given)	10.8
COc1ccc(CCC2CCCN(CC(=O)O)C2)cc1 (stereo not given)	-6.84
Cc1ccc(CN2C[C@H]3CN(CC4CCN(C)CC4)C(=O)[C@H]3C2)s1	-12.7
CCn1ccnc1CN1CCCN(C(=O)c2scnc2C)CC1	-11.5
Cn1nc(Br)c2c(NCCCS(N)(=O)=O)ncnc21	-22.7
CCn1nc(C)c2nnn(CC(=O)Nc3ccccc3)c(=O)c21	-10.7
CC(=O)N1CCCC1c1nnn2cc(Nc3ccccc3)ccc12 (stereo not given)	-5.52
CN(C)CCCN(Cc1cnn(C)c1)Cc1ccco1	-2.57

SMILES	cytotoxicity at 70.5 h [%]
O=C(c1cccs1)N1CCOCC2(C1)CN(c1cccnc1)C(=O)CO2 (stereo not given)	-16.5
CC(=O)N1CCC2(CC1)CN(C(=O)[C@@H]1CSCN1)c1ccc(Cl)cc12	1.24
Cc1nc(CN2CCCC(N(C)Cc3nc(CC(C)C)no3)C2)no1 (stereo not given)	-9.14
O=c1[nH]nc(-c2cccs2)c2sc(N3CCOCC3)nc12	-4.15
O=C(N1CCN(c2ccccc2O)CC1)C1(O)Cc2ccccc2C1	0.667
Cc1ccsc1CNc1cc(N2CCCC2CO)ncn1 (stereo not given)	-4.35
CNS(=O)(=O)CC(=O)N(C1CC1)C1Cc2ccccc2C1	-13.4
CCC1C(=O)NCCN1c1ccnc(C(C)(C)C)n1 (stereo not given)	-23.9
Cc1nc(C)n(CC2CCCCN2Cc2nc3ccccc3o2)n1 (stereo not given)	17.7
C=C(C)CN(CC)C(=O)c1cc(F)ccc1NS(C)(=O)=O	-0.0565
Cc1cc(C(=O)N2CCN(S(C)(=O)=O)[C@@H](C)C2)c(F)cc1F	-97.9
COc1nccc(C(F)(F)F)c1C(=O)O	0.892
CCN(CC)c1ccc(CNC(=O)C2(C)CCOCC2)cc1F	14.4
CCc1nc(C2CCCN(C(=O)c3ccccc3O)C2)no1 (stereo not given)	3.74
Cc1nc(-c2ccccc2C)n(CC(=O)NC2CCCC2)n1	19
COCc1cnc2n1CCN(C(=O)c1cn(C)c3ccccc13)C2C (stereo not given)	-5.93
COc1cccnc1NC(=O)COc1ccc(F)cc1F	-6.39
O=C(N1CCCC(n2cncn2)C1)C1(c2cccc(F)c2)CCC1 (stereo not given)	-8.35
CS(=O)(=O)N1CC2(CCN(c3nccs3)CC2)c2ccccc21	5.59
O=C(NCCSC1CCCC1)c1c(F)cccc1F	-6.07
NC(=O)C(NCc1ccc(Cl)s1)c1ccccc1 (stereo not given)	-7.49
COC(=O)CNc1ccc(-c2nc(Cc3ccc(OC)cc3)no2)cn1	-10.8
Cc1cccc(CN2CCC3(CC2)CC(c2cccnc2)C(=O)N3C)n1 (stereo not given)	15.6
